Assay results from ChEMBL document CHEMBL5230123, “A comprehensive review of monoamine oxidase inhibitors as Anti-Alzheimer's disease agents: A review” (Eur J Med Chem, 2020).
Blank lines part the entries; values can stand above or below the compound they belong to.

How the values were obtained:
[1] = target: T1, Amine oxidase [flavin-containing] B (Homo sapiens, UniProt P27338); assay: Inhibition of MAO-B (unknown origin) using kynuramine as substrate preincubated for 10 mins followed by substrate addition and measured after 20 mins by fluorescence microplate reader assay
T1 sequence (P27338 whole entry): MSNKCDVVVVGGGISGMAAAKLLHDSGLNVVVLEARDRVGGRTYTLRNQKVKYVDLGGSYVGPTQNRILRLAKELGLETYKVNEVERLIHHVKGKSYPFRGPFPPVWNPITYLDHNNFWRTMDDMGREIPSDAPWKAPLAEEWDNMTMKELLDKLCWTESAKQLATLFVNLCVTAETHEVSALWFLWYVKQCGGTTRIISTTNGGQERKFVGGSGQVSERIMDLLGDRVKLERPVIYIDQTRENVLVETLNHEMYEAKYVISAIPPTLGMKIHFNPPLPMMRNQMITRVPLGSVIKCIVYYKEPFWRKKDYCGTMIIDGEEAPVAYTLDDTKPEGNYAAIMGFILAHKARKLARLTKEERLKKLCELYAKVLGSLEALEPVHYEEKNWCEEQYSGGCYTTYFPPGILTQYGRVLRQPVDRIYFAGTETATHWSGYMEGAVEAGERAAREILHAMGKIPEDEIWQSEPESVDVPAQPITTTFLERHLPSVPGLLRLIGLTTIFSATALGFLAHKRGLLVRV

[2] = target: T2, Amine oxidase [flavin-containing] A (Homo sapiens, UniProt P21397); assay: Inhibition of recombinant human MAO-A using kynuramine as substrate incubated for 10 mins followed by substrate addition and measured for 20 mins by Fluorescence microplate reader assay
T2 sequence (P21397 whole entry): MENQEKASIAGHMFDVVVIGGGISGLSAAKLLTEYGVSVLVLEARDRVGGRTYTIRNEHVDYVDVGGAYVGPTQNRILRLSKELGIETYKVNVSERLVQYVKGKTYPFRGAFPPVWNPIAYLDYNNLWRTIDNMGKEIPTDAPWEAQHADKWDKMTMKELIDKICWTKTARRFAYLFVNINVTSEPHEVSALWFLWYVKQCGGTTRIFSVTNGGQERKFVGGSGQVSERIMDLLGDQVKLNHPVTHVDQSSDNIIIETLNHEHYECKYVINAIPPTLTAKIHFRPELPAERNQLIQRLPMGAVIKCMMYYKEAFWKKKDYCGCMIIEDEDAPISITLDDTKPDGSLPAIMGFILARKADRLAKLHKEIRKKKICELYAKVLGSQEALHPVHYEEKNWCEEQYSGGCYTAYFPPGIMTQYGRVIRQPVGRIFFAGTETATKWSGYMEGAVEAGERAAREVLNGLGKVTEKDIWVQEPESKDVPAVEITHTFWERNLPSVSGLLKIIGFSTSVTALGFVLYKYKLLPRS

[3] = target: T1, Amine oxidase [flavin-containing] B; assay: Inhibition of MAO-B (unknown origin) using as tyramine as substrate by Ampliflu red reagent based fluorometric method
[4] = target: T3, Amine oxidase [flavin-containing] B (Rattus norvegicus, UniProt P19643); assay: Inhibition of rat brain mitochondria MAO-B using benzylamine as substrate incubated for 30 mins by microplate reader assay
T3 sequence (P19643 whole entry): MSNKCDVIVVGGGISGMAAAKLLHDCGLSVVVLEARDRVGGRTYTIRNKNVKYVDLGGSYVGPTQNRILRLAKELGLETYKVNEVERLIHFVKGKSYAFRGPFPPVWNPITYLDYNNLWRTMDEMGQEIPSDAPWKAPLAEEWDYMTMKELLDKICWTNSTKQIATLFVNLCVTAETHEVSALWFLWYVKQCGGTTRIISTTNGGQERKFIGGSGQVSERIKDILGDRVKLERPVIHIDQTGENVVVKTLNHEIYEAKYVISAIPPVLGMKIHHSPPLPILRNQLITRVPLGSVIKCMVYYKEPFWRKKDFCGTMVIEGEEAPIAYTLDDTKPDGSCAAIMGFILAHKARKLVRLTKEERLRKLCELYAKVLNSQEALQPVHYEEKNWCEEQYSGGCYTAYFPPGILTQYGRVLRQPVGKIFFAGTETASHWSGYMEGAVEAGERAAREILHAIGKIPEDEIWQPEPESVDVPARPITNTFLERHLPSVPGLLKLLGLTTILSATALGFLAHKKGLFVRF

[5] = target: T1, Amine oxidase [flavin-containing] B; assay: Inhibition of recombinant human MAO-B using p-tyramine as substrate incubated for 15 mins followed by substrate addition and measured upto 20 mins by Amplex Red assay
[6] = target: T4, Acetylcholinesterase (Electrophorus electricus, UniProt O42275); assay: Inhibition of electric eel AChE using acetylthiocholine iodide as substrate incubated for 6 mins followed by substrate addition by DTNB reagent based Ellman's method
T4 sequence (O42275 whole entry): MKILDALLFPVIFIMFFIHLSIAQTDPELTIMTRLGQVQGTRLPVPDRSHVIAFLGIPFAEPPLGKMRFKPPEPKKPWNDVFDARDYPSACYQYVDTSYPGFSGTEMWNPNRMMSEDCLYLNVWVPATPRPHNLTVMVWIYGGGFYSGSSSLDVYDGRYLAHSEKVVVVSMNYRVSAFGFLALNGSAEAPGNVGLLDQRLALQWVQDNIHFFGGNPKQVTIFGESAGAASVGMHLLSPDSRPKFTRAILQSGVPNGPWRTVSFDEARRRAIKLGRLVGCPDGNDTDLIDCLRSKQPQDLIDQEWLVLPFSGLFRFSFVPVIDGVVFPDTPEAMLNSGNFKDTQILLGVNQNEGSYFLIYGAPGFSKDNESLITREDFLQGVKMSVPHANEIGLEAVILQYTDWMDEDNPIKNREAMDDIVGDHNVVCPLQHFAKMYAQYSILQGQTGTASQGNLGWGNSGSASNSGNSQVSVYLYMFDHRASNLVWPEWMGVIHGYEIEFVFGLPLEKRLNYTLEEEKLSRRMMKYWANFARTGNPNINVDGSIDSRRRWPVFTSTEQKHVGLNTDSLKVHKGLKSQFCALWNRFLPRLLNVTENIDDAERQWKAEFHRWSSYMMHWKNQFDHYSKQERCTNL

[7] = target: T3, Amine oxidase [flavin-containing] B; assay: Inhibition of rat brain mitochondria MAO-B using p-tyramine as substrate incubated for 15 mins followed by substrate addition and measured for 15 by microplate fluorescence reader analysis
[8] = target: T2, Amine oxidase [flavin-containing] A; assay: Inhibition of MAO-A (unknown origin) using kynuramine as substrate preincubated for 10 mins followed by substrate addition and measured after 20 mins by fluorescence microplate reader assay
[9] = target: T1, Amine oxidase [flavin-containing] B; assay: Inhibition of human MAO-B using benzylamine as substrate preincubated for 15 mins followed by substrate addition and measured after 15 mins by fluorescence assay
[10] = Oral bioavailability in ICR mouse at 10 mg/kg and measured after 24 hrs by HPLC analysis; format: ADME, organism-based; settings: in vivo
[11] = target: T5, Acetylcholinesterase (Mus musculus, UniProt P21836); assay: Inhibition of mouse AChE using acetylthiocholine iodide as substrate incubated for 20 mins by DTNB reagent based Ellman's method
T5 sequence (P21836 whole entry): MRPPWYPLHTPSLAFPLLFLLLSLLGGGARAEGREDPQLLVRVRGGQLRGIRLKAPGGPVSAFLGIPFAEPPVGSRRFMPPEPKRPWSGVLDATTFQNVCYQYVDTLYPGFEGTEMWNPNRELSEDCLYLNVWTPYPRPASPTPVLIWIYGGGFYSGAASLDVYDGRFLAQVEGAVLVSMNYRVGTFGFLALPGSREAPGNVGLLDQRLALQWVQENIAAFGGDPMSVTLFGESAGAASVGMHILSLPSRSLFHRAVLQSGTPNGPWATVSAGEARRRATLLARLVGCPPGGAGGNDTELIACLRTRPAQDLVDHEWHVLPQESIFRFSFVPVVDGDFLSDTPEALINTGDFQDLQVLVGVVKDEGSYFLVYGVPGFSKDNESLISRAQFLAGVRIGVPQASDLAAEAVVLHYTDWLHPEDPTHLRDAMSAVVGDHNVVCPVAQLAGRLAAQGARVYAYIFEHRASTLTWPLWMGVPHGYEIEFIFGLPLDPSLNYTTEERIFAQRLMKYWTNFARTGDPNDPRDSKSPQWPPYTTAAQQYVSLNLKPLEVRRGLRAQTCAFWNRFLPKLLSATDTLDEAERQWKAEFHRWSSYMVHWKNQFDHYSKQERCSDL

[12] = target: T1, Amine oxidase [flavin-containing] B; assay: Inhibition of human MAO-B
[13] = target: T1, Amine oxidase [flavin-containing] B; assay: Inhibition of MAO-B (unknown origin) using tyramine hydrochloride as substrate incubated for 30 mins followed by substrate addition and measured after 5 mins by spectrophotometric assay
[14] = target: T1, Amine oxidase [flavin-containing] B; assay: Inhibition of recombinant human MAO-B expressed in baculovirus-infected BTI insect cells using p-tyramine as substrate incubated for 45 mins by fluorescence assay
[15] = target: T4, Acetylcholinesterase; assay: Inhibition of electric eel AChE using acetylthiocholine iodide as substrate preincubated for 5 mins followed by substrate addition and measured for 20 mins by DTNB reagent based Ellman's method
[16] = target: T3, Amine oxidase [flavin-containing] B; assay: Inhibition of MAO-B expressed in Wistar rat liver preincubated for 30 mins followed by 4-(trifluoromethyl) benzylamine addition and measured after 90 mins by microplate reader analysis; format: tissue-based
[17] = target: Cholinesterase (Equus caballus, UniProt P81908); assay: Inhibition of horse serum BuChE using butyrylthiocholine iodide as substrate preincubated for 5 mins followed by substrate addition and measured for 20 mins by DTNB reagent based Ellman's method
Cholinesterase, sequence (P81908 whole entry): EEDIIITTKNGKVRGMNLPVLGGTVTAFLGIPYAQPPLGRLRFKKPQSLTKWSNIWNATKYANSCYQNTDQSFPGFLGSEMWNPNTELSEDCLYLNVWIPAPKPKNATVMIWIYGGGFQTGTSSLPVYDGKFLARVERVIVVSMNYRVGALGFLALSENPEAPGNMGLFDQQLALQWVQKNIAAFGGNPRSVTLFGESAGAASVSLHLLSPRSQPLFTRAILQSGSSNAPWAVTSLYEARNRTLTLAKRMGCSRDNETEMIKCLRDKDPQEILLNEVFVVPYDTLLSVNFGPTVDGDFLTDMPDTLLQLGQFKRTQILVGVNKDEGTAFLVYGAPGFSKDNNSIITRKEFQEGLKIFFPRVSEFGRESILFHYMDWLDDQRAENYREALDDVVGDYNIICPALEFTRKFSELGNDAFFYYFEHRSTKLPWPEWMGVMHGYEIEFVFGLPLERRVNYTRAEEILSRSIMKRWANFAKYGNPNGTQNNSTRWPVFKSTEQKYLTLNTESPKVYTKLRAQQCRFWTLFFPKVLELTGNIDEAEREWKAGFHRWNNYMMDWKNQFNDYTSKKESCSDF

[18] = species on record: Homo sapiens; assay: Selectivity index, ratio of IC50 for inhibition of recombinant human MAO-B to IC50 for inhibition of recombinant human MAO-A
[19] = target: T2, Amine oxidase [flavin-containing] A; assay: Inhibition of recombinant human MAO-A using p-tyramine as substrate incubated for 10 mins followed by substrate addition and measured 20 mins by fluorescence assay
[20] = target: T1, Amine oxidase [flavin-containing] B; assay: Inhibition of recombinant human MAO-B using p-tyramine as substrate incubated for 10 mins followed by substrate addition and measured 20 mins by fluorescence assay

SMILES: COc1cc(-c2cc(=O)c3c(O)cc(O)cc3o2)cc(OC)c1O [TRICIN]
IC50 [2]: 250 nM

SMILES: Cc1c(Cl)c(=O)oc2cc(OCCCCSC(=S)N3C(C)CCCC3C)ccc12 (stereo not given)
IC50 [5]: 101 nM | IC50 [6]: 114 nM

SMILES: C/C(=N\NC(=O)C1CC(c2ccccc2)=NO1)c1ccc(C)cc1 (stereo not given)
IC50 [7]: 5.1 nM

SMILES: CCOc1ccc([N+](=O)[O-])c(N/N=C/c2ccc(O)cc2)n1
IC50 [1]: 9300 nM | IC50 [8]: 6250 nM

SMILES: C#CCNCc1ccc2c(c1)ncn2-c1cc(NC(=S)NCC)ncn1
IC50 [9]: 2120 nM | bioavailability [10]: 45.5% | IC50 [11]: 32 nM

SMILES: O=C1CCC2(O)c3c(ccc(O)c31)-c1ccc(O)c3c1C2C1OC1C3=O (stereo not given)
IC50 [12]: > 80000 nM

SMILES: O=c1c(O)c(-c2cc(O)c(O)c(O)c2)oc2cc(O)cc(O)c12 [MYRICETIN]
IC50 [2]: 9930 nM

SMILES: O=c1oc2c(O)c(O)ccc2cc1-c1ccc(O)c(O)c1
IC50 [15]: 3040 nM | IC50 [16]: 27000 nM | IC50 [17]: 8370 nM

SMILES: Cc1c(Cl)c(=O)oc2cc(OCCCCSC(=S)N3CCCCC3C)ccc12 (stereo not given)
IC50 [5]: 8.9 nM | IC50 [6]: 6.8 nM

Further lines, results first:

IC50 [1]: 10600 nM
SMILES: CCOc1ccc([N+](=O)[O-])c(N/N=C/c2ccco2)n1

IC50 [3]: 49 nM
SMILES: Cn1cc(/N=C/c2ccc([N+](=O)[O-])cc2)c(=O)n1-c1ccccc1

IC50 [4]: 34 nM
SMILES: O=C1Nc2ccc(Cl)cc2/C1=N\NC(=O)c1ccc2c(c1)OCO2

IC50 [2]: 9520 nM
SMILES: CCOc1ccc([N+](=O)[O-])c(N/N=C/c2ccccn2)n1

IC50 [13]: 28 nM
SMILES: CN1CCN(c2ccc(/C=N/Nc3ccccc3)cc2)CC1

IC50 [14]: 28 nM
SMILES: Cn1ccc2cc(C(=S)Nc3ccc(F)cc3)ccc21

Ratio IC50 [18]: 0.02 | IC50 [19]: 1990 nM | IC50 [20]: 40 nM
SMILES: CN(C)c1ccc(/C=C/C(=O)c2cc(Cl)sc2Cl)cc1
